# Results as given in patent publication EP0357061B1, “Angiogenesis inhibitory agent” (priority 1988, dated 1990).
# Counter-ions that a name gives are not always drawn. Marks after values point to notes of the source that are not given here.
# Test system: bFGF-induced angiogenesis
# Assay: rat cornea micropocket method (angiogenesis inhibitory activity)
# Assay type: in vivo, Sprague-Dawley rats
# Settings: rats with angiogenesis inhibitory activity / rats tested; sample pellet 20 »g; judged after 7 days
# Description: The product compound (I) obtained in the examples given below were evaluated for angiogenesis inhibitory activity by the rat cornea micropocket method.
# Essentially the method of Gimbrone et al. [J. National Cancer Institute, 52, 413-419 (1974)] was followed. Thus, adult male Sprague-Dawley rats (11 to 16 weeks of age) were anesthetized with nembutal and locally anesthetized by instillation of xylocaine eyedrops onto the eyeball. The cornea was incised to a length of about 2 mm at about 2mm inside from the corneal circumference by means of an injection needle, and a sustained release pellet containing basic fibroblast growth factor (bFGF; bovine brain-derived, purified product; R & D) and a sustained release pellet containing the test sample were inserted side by side into the incision so that the bFGF pellet was located on the central side in the cornea. In the control group, the bFGF pellet and a sample-free pellet were inserted into the cornea. After 7 days and after 10 days, the cornea was observed under a stereoscopic microscope.
# The sustained release pellets were prepared in the following manner. An ethylene-vinyl acetate copolymer (Takeda Chemical Industries) was dissolved in dichloromethane to a concentration of 8%. A 3-»l portion of the solution was air-dried on a glass dish, an aqueous solution of bFGF (250 ng) was then placed thereon and air-dried and, finally 3 »l of the above ethylene-vinyl acetate copolymer solution was placed further thereon and air-dried to give a laminate consisting of two copolymer layers and a bFGF layer sandwiched therebetween. This sandwich sheet was made round into a bFGF pellet. The test sample pellets were prepared by dissolving each sample in ethanol in a concentration of 20 »g/2 »l, mixing the solution (2 »l) with 6 »l of an ethylene-vinyl acetate copolymer solution, air-drying the mixed solution on a glass dish and making the thus-obtained sheet round.
row,SMILES,Inhibition rate
1,"CO[C@@H]1[C@H](OC(=O)Nc2ccccc2)CC[C@]2(CO2)[C@H]1[C@@]1(C)O[C@@H]1CC=C(C)C [Example 11, O-Phenylcarbamoylfumagillol]",9/9*

# Same assay, conditions: rats with angiogenesis inhibitory activity / rats tested; sample pellet 20 »g; judged after 10 days
row,SMILES,Inhibition rate
1,"CO[C@@H]1[C@H](OC(N)=O)CC[C@]2(CO2)[C@H]1[C@@]1(C)O[C@@H]1CC=C(C)C [Example 23, O-Carbamoylfumagillol]",6/8
2,"CO[C@@H]1[C@H](OC(=O)NCCCl)CC[C@]2(CO2)[C@H]1[C@@]1(C)O[C@@H]1CC=C(C)C [Example 34, O-(2-Chloroethylcarbamoyl)fumagillol]",4/4
3,"CO[C@@H]1[C@H](OS(=O)(=O)c2ccc(C)cc2)CC[C@]2(CO2)[C@H]1[C@@]1(C)O[C@@H]1CC=C(C)C [Example 20, O-(p-Toluenesulfonyl)fumagillol]",3/4
4,"CO[C@@H]1[C@H](OC(=O)NC(=O)CSc2nc3ccccc3[nH]2)CC[C@]2(CO2)[C@H]1[C@@]1(C)O[C@@H]1CC=C(C)C [Example 61, O-[(2-Benzoimidazolyl)thioacetylcarbamoyl]fumagillol]",7/7
5,"CO[C@@H]1[C@H](OC(=O)CCCCl)CC[C@]2(CO2)[C@H]1[C@@]1(C)O[C@@H]1CC=C(C)C [Example 49, O-(4-Chlorobutyryl)fumagillol]",4/5
6,"CO[C@@H]1[C@H](OC(c2ccccc2)c2ccccc2)CC[C@]2(CO2)[C@H]1[C@@]1(C)O[C@@H]1CC=C(C)C [Example 45, O-Diphenylmethylfumagillol]",8/13
7,"CO[C@@H]1[C@H](OC(=O)NC(=O)CSc2ccccn2)CC[C@]2(CO2)[C@H]1[C@@]1(C)O[C@@H]1CC=C(C)C [Example 63, O-[(2-Pyridyl)thioacetylcarbamoyl]fumagillol]",6/6
8,"COC1C(OC(=O)NC(=O)CSc2cnn[nH]2)CCC2(CO2)C1C1(C)OC1CC=C(C)C (stereo not shown) [Example 67, O-[(1,2,3-Triazol-5-yl)thioacetylcarbamoyl]fumagillol]",5/5
9,"CO[C@@H]1[C@H](OS(C)(=O)=O)CC[C@]2(CO2)[C@H]1[C@@]1(C)O[C@@H]1CC=C(C)C [Example 21, O-Methylsulfonylfumagillol]",4/4
10,"CO[C@@H]1[C@H](OC(=O)CCC(=O)O)CC[C@]2(CO2)[C@H]1[C@@]1(C)O[C@@H]1CC=C(C)C [Example 2, Sodium salt of O-(3-carboxypropionyl)fumagillol]",6/6
11,"CO[C@@H]1[C@H](OC(=O)NCC[N+](C)(C)C)CC[C@]2(CO2)[C@H]1[C@@]1(C)O[C@@H]1CC=C(C)C [Example 56, O-[2-(N,N,N-Trimethylammonio)ethylcarbamoyl]fumagillol iodide]",4/7
12,"CO[C@@H]1[C@H](OC(=O)NCCN(C)C)CC[C@]2(CO2)[C@H]1[C@@]1(C)O[C@@H]1CC=C(C)C [Example 28, O-(2-Dimethylaminoethylcarbamoyl)fumagillol]",11/11
13,"CO[C@@H]1[C@H](OC(=O)Oc2ccccc2)CC[C@]2(CO2)[C@H]1[C@@]1(C)O[C@@H]1CC=C(C)C [Example 22, O-Phenoxycarbonylfumagillol]",5/8
14,"CO[C@@H]1[C@H](OC(=O)NC(=O)CSc2ccncc2)CC[C@]2(CO2)[C@H]1[C@@]1(C)O[C@@H]1CC=C(C)C [Example 64, O-[(4-Pyridyl)thioacetylcarbamoyl]fumagillol]",5/5
15,"CO[C@@H]1[C@H](OC(=O)NC(=O)CSC(C)=O)CC[C@]2(CO2)[C@H]1[C@@]1(C)O[C@@H]1CC=C(C)C [Example 41, O-Acetylthioacetylcarbamoylfumagillol]",2/4
16,"CO[C@@H]1[C@H](OC(=O)NC(C)=O)CC[C@]2(CO2)[C@H]1[C@@]1(C)O[C@@H]1CC=C(C)C [Example 29, O-Acetylcarbamoylfumagillol]",7/7
17,"COC1C(OC(=O)NC(=O)NC(=O)c2ccccc2)CCC2(CO2)C1C1(C)OC1CC=C(C)C (stereo not shown) [Example 75, O-(N'-Benzoylallophanoyl)fumagillol]",8/8
18,"CO[C@@H]1[C@H](OC(=O)NC(=O)C(Cl)Cl)CC[C@]2(CO2)[C@H]1[C@@]1(C)O[C@@H]1CC=C(C)C [Example 30, O-Dichloroacetylcarbamoylfumagillol]",4/8
19,"CO[C@@H]1[C@H](OC(=O)n2ccnc2)CC[C@]2(CO2)[C@H]1[C@@]1(C)O[C@@H]1CC=C(C)C [Example 27, O-(1-Imidazolylcarbonyl)fumagillol]",3/7
20,"CO[C@@H]1[C@H](OC(=O)NC(=O)CSc2cccc[n+]2[O-])CC[C@]2(CO2)[C@H]1[C@@]1(C)O[C@@H]1CC=C(C)C [Example 43, O-[(Pyridine-N-oxide-2-yl)thioacetylcarbamoyl]fumagillol]",7/7

row,SMILES,Inhibition rate
1,"C=C(C)C(=O)NC(=O)O[C@@H]1CC[C@]2(CO2)[C@@H]([C@@]2(C)O[C@@H]2CC=C(C)C)[C@@H]1OC [Example 33, O-Methacryloylcarbamoylfumagillol]",4/6
2,"CO[C@@H]1[C@H](OCc2ccc(Br)cc2)CC[C@]2(CO2)[C@H]1[C@@]1(C)O[C@@H]1CC=C(C)C [Example 18, O-(p-Bromobenzyl)fumagillol]",7/7
3,"CO[C@@H]1[C@H](OC(=O)NC(=O)CSc2nc3ccccc3s2)CC[C@]2(CO2)[C@H]1[C@@]1(C)O[C@@H]1CC=C(C)C [Example 42, O-(2-Benzothiazolylthioacetylcarbamoyl)fumagillol]",7/7
4,"CO[C@@H]1[C@H](OC(=O)NC(=O)CSc2nnnn2CCN(C)C)CC[C@]2(CO2)[C@H]1[C@@]1(C)O[C@@H]1CC=C(C)C [Example 52, O-[[1-(2-Dimethylaminoethyl)tetrazol]-5-yl-thioacetylcarbamoyl]fumagillol]",6/8
5,"CO[C@@H]1[C@H](OC(=O)NC(=O)CSc2nnc(C)s2)CC[C@]2(CO2)[C@H]1[C@@]1(C)O[C@@H]1CC=C(C)C [Example 53, O-[(2-methyl-1,3,4-thiadiazol-5-yl)thioacetylcarbamoyl]fumagillol]",8/8
6,"CCN1CCN(C(=O)O[C@@H]2CC[C@]3(CO3)[C@@H]([C@@]3(C)O[C@@H]3CC=C(C)C)[C@@H]2OC)CC1 [Example 39, O-[1-(4-Ethylpiperazinyl)carbonyl]fumagillol]",8/8
7,"CO[C@@H]1[C@H](OC(=O)NC(=O)C(Cl)(Cl)Cl)CC[C@]2(CO2)[C@H]1[C@@]1(C)O[C@@H]1CC=C(C)C [Example 31, O-Trichloroacetylcarbamoylfumagillol]",5/6
8,"CO[C@@H]1[C@H](OC(=O)Nc2ccc(Cl)cc2)CC[C@]2(CO2)[C@H]1[C@@]1(C)O[C@@H]1CC=C(C)C [Example 35, O-(p-Chlorophenylcarbamoyl)fumagillol]",4/8
9,"CCOC(=O)NC(=O)OC1CCC2(CO2)C(C2(C)OC2CC=C(C)C)C1OC (stereo not shown) [Example 70, O-[N-(Ethoxycarbonyl)carbamoyl]fumagillol]",5/5
10,"CO[C@@H]1[C@H](OC)CC[C@]2(CO2)[C@H]1[C@@]1(C)O[C@@H]1CC=C(C)C [Example 14, O-Methylfumagillol]",4/8
11,"CO[C@@H]1[C@H](OC(=O)NC(=O)CSc2cccc3cccnc23)CC[C@]2(CO2)[C@H]1[C@@]1(C)O[C@@H]1CC=C(C)C [Example 62, O-[(8-Quinolyl)thioacetylcarbamoyl]fumagillol]",7/7
12,"CO[C@@H]1[C@H](OC(=O)CCCC(=O)O)CC[C@]2(CO2)[C@H]1[C@@]1(C)O[C@@H]1CC=C(C)C [Example 4, Sodium salt of O-(4-carboxybutanoyl)fumagillol]",6/7
13,"CO[C@@H]1[C@H](OC(=O)NC(=O)COC(C)=O)CC[C@]2(CO2)[C@H]1[C@@]1(C)O[C@@H]1CC=C(C)C [Example 40, O-Acetoxyacetylcarbamoylfumagillol]",6/6
14,"CCN(CC)CC(=O)NC(=O)O[C@@H]1CC[C@]2(CO2)[C@@H]([C@@]2(C)O[C@@H]2CC=C(C)C)[C@@H]1OC [Example 44, O-Diethylaminoacetylcarbamoylfumagillol]",7/7
15,"CO[C@@H]1[C@H](OCc2cccc3ccccc23)CC[C@]2(CO2)[C@H]1[C@@]1(C)O[C@@H]1CC=C(C)C [Example 46, O-(1-Naphthylmethyl)fumagillol]",7/10
16,"CO[C@@H]1[C@H](OC(=O)NC(=O)CSc2nc3ccccc3o2)CC[C@]2(CO2)[C@H]1[C@@]1(C)O[C@@H]1CC=C(C)C [Example 60, O-[(2-Benzoxazolyl)thioacetylcarbamoyl]fumagillol]",4/6
17,"CO[C@@H]1[C@H](OC(=O)N2CCOCC2)CC[C@]2(CO2)[C@H]1[C@@]1(C)O[C@@H]1CC=C(C)C [Example 24, O-Morpholinocarbonylfumagillol]",5/12
18,"CO[C@@H]1[C@H](OC(=O)NC(=O)CSc2cccc3ccccc23)CC[C@]2(CO2)[C@H]1[C@@]1(C)O[C@@H]1CC=C(C)C [Example 54, O-(1-Naphthalenethioacetylcarbamoyl)fumagillol]",5/5
19,"CO[C@@H]1[C@H](OC(=O)NS(=O)(=O)c2ccc(C)cc2)CC[C@]2(CO2)[C@H]1[C@@]1(C)O[C@@H]1CC=C(C)C [Example 38, O-(p-Toluenesulfonylcarbamoyl)fumagillol]",13/15
